We go through four molecules from patent US7172907B2, “Cyanine dye labelling reagents with meso-substitution” (GE Healthcare Bio-Sciences Corp., priority 2003, dated 2007).

For data set [1] the following is noted: background values for known Cy dyes, X = Y = C(CH3)2; cited from earlier work.
Data set [2] can be described thus: Hydrolytic stability in de-ionized water, fading of the dyes. In kind it is physicochemical.
Data set [3] in a line: Photostability: ethanolic solution left in the room light, fading of the dyes. In kind it is physicochemical.
The nature of data set [4]: Absorption and emission spectra of meso-cyano Cy5 in MeOH. In kind it is physicochemical. The procedure: (§1) 2-{N-Acetyl-N-phenyl}aminoethenyl-1,3,3-trimethylindoleriine and 2-{N-acetyl-N-phenyl}aminoethenyl-1-{6-carboxypentyl}-3,3-trimethylindolenine (20 mmoles of each) and 10 equivalents of cyanoacetic acid in pyridine (100 ml) were heated under reflux under Argon for 4 hours. At the end of the reaction, the pyridine was evaporated and the product purified by repeated HPLC purification followed by silica gel column chromatography with increasing amounts of MeOH in ethyl acetate as the eluant to give a pure product, 2-{5-[1-(5-carboxypentyl)-3,3-dimethyl-1,3-dihydro-2H-indol-2-ylidene]-3-cyano-1,3-pentadienyl}-1,3,3-trimethyl-3H-indolinium (meso-cyano Cy5). Absorption maximum (MeOH): 610 nm: Emission maximum (MeOH): 628 nm; Quantum yield: 0.65 that of Cy5.

Data set [5] is described as follows: Fluorescence quantum yield relative to Cy5. In kind it is physicochemical. The following applies: expressed as fraction of that of Cy5. The procedure: as §1

For `CCN1C(=CC=CC2=[N+](CCCCCC(=O)O)c3ccc(S(=O)(=O)O)cc3C2(C)C)C(C)(C)c2cc(S(=O)(=O)[O-])ccc21` [Cy3], in data set [1], the Abs max is 550 nm and the Em max is 570 nm.

Take `CCN1/C(=C/C=C/C=C/C2=[N+](CCCCCC(=O)O)c3ccc(S(=O)(=O)O)cc3C2(C)C)C(C)(C)c2cc(S(=O)(=O)[O-])ccc21` [Cy5]: in data set [1], the Abs max is on record as 649 nm and the Em max is reported as 670 nm. The “Hydrolytic stability: half-life (t1/2) for fading of the dyes” value in data set [2] (pH=6.85) was 56 h. In addition, the “Photostability: half-life (t1/2) for fading of the dyes” value in data set [3] is 22 h.

Take `CN1/C(=C/C=C(C#N)/C=C/C2=[N+](CCCCCC(=O)O)c3ccccc3C2(C)C)C(C)(C)c2ccccc21` [meso-cyano Cy5, 2-{5-[1-(5-Carboxypentyl)-3,3-dimethyl-1,3-dihydro-2H-indol-2-ylidene]-3-cyano-1,3-pentadienyl}-1,3,3-trimethyl-3H-indolinium]: in data set [4], the Absorption maximum is 610 nm and the Emission maximum came to 628 nm. The molecule also yielded a Quantum yield in data set [5] of 0.65. For the same molecule, the half-life in data set [2] (pH=6.85, read-out: Hydrolytic stability: half-life (t1/2) for fading of the dyes) was more than 150 h. Further, the half-life in data set [3] (read-out: Photostability: half-life (t1/2) for fading of the dyes) is more than 75 h.

With Cy5.5, in data set [1], the Abs max is 675 nm and the Em max is 694 nm.
